Our source for the inhibition values is ChEMBL document CHEMBL5620418.

SMILES strings stand for the structures. Calls of active or inactive are those of the source. The rule behind the calls is not given here.

The subject of the assay is Mus musculus. Kind of assay: Inhibition of morphine-induced intestinal propulsion function in mouse assessed as charcoal propulsion length at 10 mg/kg, ip by charcoal gavage and intestinal motility assays. The assay is classed as functional, organism-based.

As for `COC(=O)/C=C/C(=O)N[C@@H]1CC[C@@]2(O)[C@H]3Cc4ccc(O)c5c4[C@@]2(CCN3CC2CC2)[C@H]1O5`, the inhibition entry was “Active”.
